{"source": "patent US8394763B2", "about": "“Cyclic undecapeptides and derivatives as multiple sclerosis therapies” (Oregon Health & Science University, priority 2007, dated 2013)", "key": {"EAE in B6 mice [1]": {"system": "EAE in B6 mice", "experiment": "Repair of injured axons: NF-P immunostaining at day 40, treatment from day 15", "type": "in vivo", "source_text": "B6 mice were immunized with MOG 35-55 peptide as described in Example 2. […] The two treatment groups were perfused on day 40 post-immunization and sections of their spinal cords were immunostained for NF-P."}, "EAE in B6 mice [2]": {"system": "EAE in B6 mice", "experiment": "Reversal of paralysis in EAE, treatment begun day 15 after onset", "type": "in vivo", "conditions": "20 mg/kg daily from day 15", "source_text": "EAE was induced in B6 mice as described in Example 2. Mice developed signs of EAE 10-12 days following immunization with MOG 35-55 peptide. […] Mice were scored daily for EAE, blinded to treatment status."}, "EAE in C57BL/6 mice": {"system": "EAE in C57BL/6 mice", "experiment": "CD4 and CD11b immunostaining of spinal cord of EAE mice", "type": "in vivo", "conditions": "20 mg/kg/day s.c. from day 15, day 34 to 40", "source_text": "EAE was induced in C57BL/6 mice by immunization with […] as described in Example 2. […] Mice received therapy by daily subcutaneous injection. Mice were euthanized at day 34 to 40 post-immunization by perfusion with 4% paraformaldehyde and spinal cords were removed for immunohistochemical staining and quantitative analysis. Spinal cord sections were stained with anti-CD4 (lymphocyte) or anti-CD11b (monocyte/macrophage lineage) antibodies and quantified following image capture on a laser scanning confocal microscope."}, "Mice with induced EAE [3]": {"system": "Mice with induced EAE", "experiment": "Phosphorylated neurofilament (NF-P) immunostaining of spinal cord of EAE mice, dose groups", "type": "in vivo", "conditions": "vehicle 24%", "procedure": "Mice with induced EAE were perfused with 4% paraformaldehyde and 1- to 2-mm lengths of spinal cord were processed for sectioning as described in Masliah et al. Spinal cord sections were blocked and stained with anti-phosphorylated NF, SMI312 (Sternberger Monoclonals, Lutherville, Md.). Following incubation in goat anti-mouse secondary antibody and incubation in mouse peroxidase-antiperoxidase, immunoreactivity was visualized with 0.05% diaminobenzidine tetrahydrochloride/0.01% hydrogen peroxide, examined by light microscopy and photographed and analyzed as described for assessing white matter tissue damage. Statistical significance was determined by using one-way ANOVA followed by Newman-Keuls multiple comparisons tests (WINKS 4.62 professional edition; Texasoft, Dallas, Tex.); significance was defined as p<0.05."}, "lymph node cells": {"system": "lymph node cells", "experiment": "Proliferation of lymph node cells to MOG 35-55 peptide, [3H]thymidine incorporation", "type": "cell-based, C57BL/6 (B6) mice", "conditions": "25 μg/ml MOG 35-55 peptide; equimolar concentrations of both compounds; vs MOG 35-55 peptide alone"}, "[4]": {"system": "Splenocytes or lymphocytes", "experiment": "Proliferation of splenocytes or lymphocytes from treated immunized mice in response to MOG 35-55 peptide", "type": "in vivo, B6 mice", "conditions": "mice treated with 20 mg/kg/day, compared with vehicle"}, "[5]": {"system": "EAE in C57BL/6 (B6) female mice", "experiment": "Clinical course of EAE, treatment begun prior to disease onset (day 10)", "type": "in vivo, C57BL/6 (B6) mice", "conditions": "for mean total EAE score: vehicle control 99", "description": "EAE was induced in C57BL/6 (B6) female mice by immunization with 200 μg of MOG 35-55 peptide in complete Freund's adjuvant containing 400 μg of Mycobacterium tuberculosis per mouse by subcutaneous injection. Pertussis toxin was administered intraperitoneally at day 0 (25 ng per mouse) and day 2 (66 ng per mouse) after immunization. […] Mice were examined for signs of EAE daily, blinded to treatment status. EAE was scored by using a 9 point scale (0, no paralysis; 1, limp tail with minimal hind limb weakness; 2, mild hind limb weakness; 3, moderate hind limb weakness; 4, moderately severe hind limb weakness; 5, severe hind limb weakness; 6, complete hind limb paralysis; 7, hind limb paralysis with mild forelimb weakness; 8, hind limb paralysis with moderate forelimb weakness; and 9, hind limb paralysis with severe forelimb weakness)."}, "Mice with induced EAE [6]": {"system": "Mice with induced EAE", "experiment": "White matter tissue damage in thoracic spinal cord of EAE mice (toluidine blue)", "type": "in vivo", "conditions": "vs vehicle", "procedure": "Mice with induced EAE were deeply anesthetized with isoflurane, heparinized, and perfused with 5% gluteraldehyde, and spinal cords were dissected as described in Masliah et al., Am. J. Pathol. 142:871-882, 1993. Tissue samples were post-fixed with 1% osmium. Semithin sections (0.5 μm) were stained with toluidine blue and photographed at 25× magnification. The percentage of the spinal cord showing damage was determined in the ventrolateral and dorsal thoracic cord. Photomontages (final magnification 100×) of the entire spinal cord and areas containing damaged fibers were measured using a SummaSketch 111 (Summagraphics, Fairfield, Conn.) digitizing tablet and BIOQUANT Classic 95 software (R & M Biometrics, Nashville, Tenn.). Measurements were taken of the total area (damaged and nondamaged) and the cumulative percentage area of lesions was calculated."}, "CypA": {"target": "CypA (Homo sapiens, UniProt P62937)", "sequence (P62937 whole entry, species assumed)": "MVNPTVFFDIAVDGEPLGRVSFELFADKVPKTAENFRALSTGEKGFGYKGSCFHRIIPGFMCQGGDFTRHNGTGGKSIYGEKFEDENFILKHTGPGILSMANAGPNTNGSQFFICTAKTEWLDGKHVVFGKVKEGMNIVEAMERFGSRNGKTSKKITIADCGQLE", "conditions": "see U.S. Pat. No. 6,927,208 and WO 2006/038088; cited from earlier work"}, "[7]": {"conditions": "20 mg/kg, vs vehicle treated mice"}}, "data": [{"substance": "Cyclo[L-alanyl-D-alanyl-N-methyl-L-leucyl-N-methyl-L-leucyl-N-methyl-L-valyl-(2S,3R,4R,6E)-3-hydroxy-4-methyl-2-methylamino-6-octenoyl-(2S)-2-aminobutanoyl-N-methyl-D-alanyl-N-ethyl-L-valyl-L-valyl-N-methyl-L-leucyl] [[D-MeAla]^3-[EtVal]^4-CsA]", "values": [{"measurement": "reduced NF-P staining, share of dorsal spinal cord", "setting": "EAE in B6 mice [1]; 20 mg/kg daily from day 15, read at day 40, day 15 untreated 9%, vehicle 4.7%", "result": 1.7, "unit": "%"}, {"measurement": "reduced NF-P staining, share of ventrolateral spinal cord", "setting": "EAE in B6 mice [1]; 20 mg/kg daily from day 15, read at day 40, day 15 untreated 14%, vehicle 20%", "result": 7, "unit": "%"}, {"measurement": "improvement in expression of NF-P within axons", "setting": "EAE in B6 mice [1]; 20 mg/kg daily, day 40 vs day 15", "result": "≥ 50", "unit": "%"}, {"measurement": "clinical course of paralysis", "setting": "EAE in B6 mice [2]", "result": "progressive improvement, eventually returning to nearly normal"}, {"measurement": "mean total EAE score", "setting": "EAE in B6 mice [2]; vehicle 116, p=0.0006", "result": 75}, {"measurement": "percentage area stained by anti-CD4, spinal cord", "setting": "EAE in C57BL/6 mice; no treatment 0.86%, vehicle 0.74%, not significant", "result": 0.61, "unit": "%"}, {"measurement": "CD11b cells, percentage of white matter", "setting": "EAE in C57BL/6 mice; no treatment 6.64%, vehicle 5.83%, p=0.05 vs vehicle", "result": 3.94, "unit": "%"}, {"measurement": "mean area of loss of NF-P staining, lateral/ventral thoracic spinal cord", "setting": "Mice with induced EAE [3]; 1 mg/kg", "result": 14.5, "unit": "%"}, {"measurement": "mean area of loss of NF-P staining, lateral/ventral thoracic spinal cord", "setting": "Mice with induced EAE [3]; 5 mg/kg", "result": 3, "unit": "%"}, {"measurement": "mean area of loss of NF-P staining, lateral/ventral thoracic spinal cord", "setting": "Mice with induced EAE [3]; 20 mg/kg", "result": 1.5, "unit": "%"}, {"measurement": "proliferative capacity of lymph node cells, MOG 35-55 peptide stimulated", "setting": "lymph node cells", "result": "did not significantly alter"}, {"measurement": "proliferation of splenocytes or lymphocytes in response to MOG 35-55 peptide", "setting": "[4]", "result": "no differences in proliferation"}, {"measurement": "mean total EAE score", "setting": "[5]; 1 mg/kg/day from day 10", "result": 53}, {"measurement": "mean total EAE score", "setting": "[5]; 5 mg/kg/day from day 10", "result": 25}, {"measurement": "onset of disease", "setting": "[5]; [7]", "result": "significantly delayed"}, {"measurement": "severity of peak disease", "setting": "[5]; [7]", "result": "reduced"}, {"measurement": "mean total EAE score", "setting": "[5]; 20 mg/kg/day from day 10", "result": 12}, {"measurement": "recovery over the course of the experiment", "setting": "[5]; all doses (1, 5, 20 mg/kg), in contrast to vehicle", "result": "completely recovered"}, {"measurement": "reduction of tissue damage, dorsal thoracic cord", "setting": "Mice with induced EAE [6]; 1 mg/kg/day", "result": 50, "unit": "%"}, {"measurement": "reduction of tissue damage, ventrolateral thoracic cord", "setting": "Mice with induced EAE [6]; 1 mg/kg/day", "result": 40, "unit": "%"}, {"measurement": "reduction of tissue damage, dorsal thoracic cord", "setting": "Mice with induced EAE [6]; 5 mg/kg/day", "result": 69, "unit": "%"}, {"measurement": "reduction of tissue damage, ventrolateral thoracic cord", "setting": "Mice with induced EAE [6]; 5 mg/kg/day", "result": 76, "unit": "%"}, {"measurement": "reduction of tissue damage, dorsal thoracic cord", "setting": "Mice with induced EAE [6]; 20 mg/kg/day", "result": 81, "unit": "%"}, {"measurement": "reduction of tissue damage, ventrolateral thoracic cord", "setting": "Mice with induced EAE [6]; 20 mg/kg/day", "result": 86, "unit": "%"}]}, {"substance": "[EtPhe(4-CH2PO(OMe)2)]^4-CsA", "values": [{"measurement": "apparent Ki for CypA activity compared with CsA", "setting": "CypA", "result": "less than the Ki of CsA"}]}]}
